Measured values: ChEMBL document CHEMBL1201862, “PubChem BioAssay data set” (2004)
Activity calls are given as the source filed them. For most assays here, no stated cut-off is given here; in the data, actives have a measured IC50 and inactives only a lower limit.

How the values were obtained:
[1] = target: Protein-arginine deiminase type-4 (Homo sapiens, UniProt Q9UM07); test: human PAD4 inhibitor potency, dose response, biochemical, fluorescence readout (AID 492970)
[2] = target: Tyrosine-protein phosphatase non-receptor type 12 (Homo sapiens, UniProt Q05209); test: SAR Selectivity Analysis of small molecule inhibitors of PEST using pCAP in a fluorescence assay. [Related pubchem assays (depositor defined):AID1779, AID1784, AID2135]; type: functional
[3] = target: T1, Dual specificity protein phosphatase 3 (Homo sapiens, UniProt P51452); test: SAR VHR1 absorbance Assay for In Vitro dose response studies. [Related pubchem assays (depositor defined):AID1654, AID1661, AID1878, AID1992, AID2004]
[4] = target: T1, Dual specificity protein phosphatase 3; test: SAR VHR1 Fluorescent Assay for In Vitro dose response studies. [Related pubchem assays (depositor defined):AID1654, AID1661, AID1878, AID1992, AID2004, AID2070, AID2085]; type: functional
[5] = target: T2, Tyrosine-protein phosphatase non-receptor type 22 (Homo sapiens, UniProt Q9Y2R2); test: SAR LYP1 Fluorescent Assay using OMFP substrate for In Vitro dose response studies - Set 3. [Related pubchem assays (depositor defined):AID1779, AID1784, AID2140, AID2686]; type: functional
T2 sequence (Q9Y2R2 whole entry): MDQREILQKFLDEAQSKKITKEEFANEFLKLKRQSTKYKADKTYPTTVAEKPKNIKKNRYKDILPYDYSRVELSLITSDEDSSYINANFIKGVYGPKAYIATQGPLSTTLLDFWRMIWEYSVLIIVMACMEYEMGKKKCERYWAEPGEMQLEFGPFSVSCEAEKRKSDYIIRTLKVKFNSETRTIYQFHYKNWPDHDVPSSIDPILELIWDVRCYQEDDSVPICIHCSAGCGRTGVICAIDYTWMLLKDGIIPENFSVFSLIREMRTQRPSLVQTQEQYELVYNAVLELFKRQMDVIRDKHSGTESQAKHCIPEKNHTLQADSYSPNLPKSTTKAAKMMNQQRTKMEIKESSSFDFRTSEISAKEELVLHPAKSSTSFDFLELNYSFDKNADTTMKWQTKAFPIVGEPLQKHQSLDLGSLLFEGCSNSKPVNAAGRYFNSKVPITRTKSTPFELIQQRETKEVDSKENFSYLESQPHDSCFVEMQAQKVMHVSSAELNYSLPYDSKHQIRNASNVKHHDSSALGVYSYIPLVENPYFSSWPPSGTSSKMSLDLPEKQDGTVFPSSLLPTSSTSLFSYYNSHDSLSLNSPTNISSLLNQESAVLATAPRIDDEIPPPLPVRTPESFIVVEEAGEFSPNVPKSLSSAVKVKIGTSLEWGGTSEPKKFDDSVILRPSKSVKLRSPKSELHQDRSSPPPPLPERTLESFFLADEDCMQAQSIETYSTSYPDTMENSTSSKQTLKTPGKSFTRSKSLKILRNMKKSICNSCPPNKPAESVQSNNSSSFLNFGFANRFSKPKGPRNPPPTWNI

[6] = target: T1, Dual specificity protein phosphatase 3; test: MOA VHR1 Fluorescent secondary assay for identification of redox-state modulating compounds. [Related pubchem assays (depositor defined):AID1654, AID1661, AID1878, AID1957]
[7] = target: T3, Tyrosine-protein phosphatase non-receptor type 7 (Homo sapiens, UniProt P35236); test: redox-dependent HePTP inhibition, mechanism study, biochemical, fluorescence (AID 2068); type: functional
T3 sequence (P35236 whole entry): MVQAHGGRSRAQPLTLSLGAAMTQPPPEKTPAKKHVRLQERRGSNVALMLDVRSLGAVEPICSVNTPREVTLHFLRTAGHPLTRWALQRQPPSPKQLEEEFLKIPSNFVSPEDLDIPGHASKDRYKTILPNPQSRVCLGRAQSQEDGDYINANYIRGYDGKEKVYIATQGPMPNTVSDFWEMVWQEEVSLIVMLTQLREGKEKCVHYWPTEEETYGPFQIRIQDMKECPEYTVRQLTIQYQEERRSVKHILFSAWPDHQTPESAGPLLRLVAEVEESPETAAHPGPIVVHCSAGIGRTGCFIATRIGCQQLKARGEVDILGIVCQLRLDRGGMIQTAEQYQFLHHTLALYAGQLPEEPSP

[8] = target: T3, Tyrosine-protein phosphatase non-receptor type 7; test: HePTP (PTPN7) phosphatase inhibitor potency, SAR follow-up, biochemical, set 2 (AID 449736); type: functional
[9] = target: T2, Tyrosine-protein phosphatase non-receptor type 22; test: LYP (PTPN22) phosphatase inhibitor potency, SAR follow-up, biochemical, pCAP fluorogenic substrate, fluorescence, set 3 (AID 449727); type: functional
[10] = target: T4, Dual specificity protein phosphatase 6 (Rattus norvegicus, UniProt Q64346); type: functional;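 further: confirmatory in vitro dose-response testing of MKP-3 inhibition; recombinant His-tagged MKP-3 made in E. coli BL21 with OMFP substrate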
T4 sequence (Q64346 whole entry): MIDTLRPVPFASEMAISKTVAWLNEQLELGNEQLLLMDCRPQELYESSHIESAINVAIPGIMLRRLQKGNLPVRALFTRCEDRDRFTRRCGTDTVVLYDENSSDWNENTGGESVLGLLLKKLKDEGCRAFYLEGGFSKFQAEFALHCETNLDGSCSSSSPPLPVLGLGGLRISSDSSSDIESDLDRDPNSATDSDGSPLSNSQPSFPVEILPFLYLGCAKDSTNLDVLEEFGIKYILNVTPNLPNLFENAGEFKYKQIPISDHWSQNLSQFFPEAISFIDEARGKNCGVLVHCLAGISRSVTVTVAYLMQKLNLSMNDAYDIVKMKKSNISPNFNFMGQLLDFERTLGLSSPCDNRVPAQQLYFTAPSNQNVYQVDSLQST

[11] = target: DNA (cytosine-5)-methyltransferase 1 (Homo sapiens, UniProt P26358); test: DNMT1 methyltransferase inhibitors, confirmation, biochemical, fluorescent molecular beacon (AID 602386); type: functional
[12] = target: T5, Small ubiquitin-related modifier 1 (Homo sapiens, UniProt P63165); test: inhibitors of SUMO1 peptide binding, dose response, biochemical, fluorescence polarization, uHTS hits (AID 624382); type: functional; conditions: read-out: IC50_Mean
[13] = target: T5, Small ubiquitin-related modifier 1; test: inhibitors of SUMO1 partner interactions, dose response, biochemical, FRET (AID 624383); type: functional; conditions: read-out: IC50_Mean
[14] = target: T6, Low molecular weight phosphotyrosine protein phosphatase (Homo sapiens, UniProt P24666); type: functional; conditions: read-out: IC50_Mean;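 further: Dose-response confirmation assay measuring inhibition of LMPTP enzyme activity by fluorescence intensity read-out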
T6 sequence (P24666 whole entry): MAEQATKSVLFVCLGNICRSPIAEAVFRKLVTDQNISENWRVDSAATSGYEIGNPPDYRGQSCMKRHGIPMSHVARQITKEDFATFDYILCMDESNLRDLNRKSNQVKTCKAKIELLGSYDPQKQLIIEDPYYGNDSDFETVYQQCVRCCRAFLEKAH

[15] = target: T2, Tyrosine-protein phosphatase non-receptor type 22; test: LYP phosphatase inhibition for selectivity, dose response, selectivity assay for LMPTP inhibitor project, biochemical, fluorescence, LYP catalytic domain (AID 652006); type: functional; conditions: read-out: IC50_Mean

T1 sequence (P51452 whole entry): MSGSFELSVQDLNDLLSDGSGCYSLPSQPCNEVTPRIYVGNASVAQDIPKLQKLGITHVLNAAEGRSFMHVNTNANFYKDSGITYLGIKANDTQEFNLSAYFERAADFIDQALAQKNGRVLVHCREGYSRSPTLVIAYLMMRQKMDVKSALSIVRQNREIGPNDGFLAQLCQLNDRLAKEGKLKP
T5 sequence (P63165 whole entry): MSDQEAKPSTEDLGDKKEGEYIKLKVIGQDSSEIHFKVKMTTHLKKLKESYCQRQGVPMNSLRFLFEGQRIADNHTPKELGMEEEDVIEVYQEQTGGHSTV
Chain of Tyrosine-protein phosphatase non-receptor type 12 (Q05209 whole entry): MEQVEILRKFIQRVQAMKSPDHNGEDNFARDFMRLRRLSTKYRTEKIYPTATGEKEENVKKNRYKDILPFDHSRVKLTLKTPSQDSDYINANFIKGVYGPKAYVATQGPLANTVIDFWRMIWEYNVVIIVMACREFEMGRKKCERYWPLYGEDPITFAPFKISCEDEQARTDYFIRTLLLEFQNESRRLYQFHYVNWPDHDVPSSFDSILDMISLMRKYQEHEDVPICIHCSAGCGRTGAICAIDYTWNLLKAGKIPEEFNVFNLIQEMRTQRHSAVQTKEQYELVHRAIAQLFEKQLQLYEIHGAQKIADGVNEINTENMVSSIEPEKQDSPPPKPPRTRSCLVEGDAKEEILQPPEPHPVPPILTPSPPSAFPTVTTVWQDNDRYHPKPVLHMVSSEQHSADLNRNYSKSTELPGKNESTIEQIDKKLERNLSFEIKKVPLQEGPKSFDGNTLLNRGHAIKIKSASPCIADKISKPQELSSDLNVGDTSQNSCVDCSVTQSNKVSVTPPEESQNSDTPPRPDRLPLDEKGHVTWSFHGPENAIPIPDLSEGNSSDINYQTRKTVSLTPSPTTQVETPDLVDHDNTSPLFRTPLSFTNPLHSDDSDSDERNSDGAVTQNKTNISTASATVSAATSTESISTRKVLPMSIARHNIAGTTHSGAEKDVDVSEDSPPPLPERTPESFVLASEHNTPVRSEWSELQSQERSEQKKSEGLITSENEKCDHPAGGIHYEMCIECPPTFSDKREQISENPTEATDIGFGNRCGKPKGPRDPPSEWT
Chain of DNA (cytosine-5)-methyltransferase 1 (P26358 whole entry): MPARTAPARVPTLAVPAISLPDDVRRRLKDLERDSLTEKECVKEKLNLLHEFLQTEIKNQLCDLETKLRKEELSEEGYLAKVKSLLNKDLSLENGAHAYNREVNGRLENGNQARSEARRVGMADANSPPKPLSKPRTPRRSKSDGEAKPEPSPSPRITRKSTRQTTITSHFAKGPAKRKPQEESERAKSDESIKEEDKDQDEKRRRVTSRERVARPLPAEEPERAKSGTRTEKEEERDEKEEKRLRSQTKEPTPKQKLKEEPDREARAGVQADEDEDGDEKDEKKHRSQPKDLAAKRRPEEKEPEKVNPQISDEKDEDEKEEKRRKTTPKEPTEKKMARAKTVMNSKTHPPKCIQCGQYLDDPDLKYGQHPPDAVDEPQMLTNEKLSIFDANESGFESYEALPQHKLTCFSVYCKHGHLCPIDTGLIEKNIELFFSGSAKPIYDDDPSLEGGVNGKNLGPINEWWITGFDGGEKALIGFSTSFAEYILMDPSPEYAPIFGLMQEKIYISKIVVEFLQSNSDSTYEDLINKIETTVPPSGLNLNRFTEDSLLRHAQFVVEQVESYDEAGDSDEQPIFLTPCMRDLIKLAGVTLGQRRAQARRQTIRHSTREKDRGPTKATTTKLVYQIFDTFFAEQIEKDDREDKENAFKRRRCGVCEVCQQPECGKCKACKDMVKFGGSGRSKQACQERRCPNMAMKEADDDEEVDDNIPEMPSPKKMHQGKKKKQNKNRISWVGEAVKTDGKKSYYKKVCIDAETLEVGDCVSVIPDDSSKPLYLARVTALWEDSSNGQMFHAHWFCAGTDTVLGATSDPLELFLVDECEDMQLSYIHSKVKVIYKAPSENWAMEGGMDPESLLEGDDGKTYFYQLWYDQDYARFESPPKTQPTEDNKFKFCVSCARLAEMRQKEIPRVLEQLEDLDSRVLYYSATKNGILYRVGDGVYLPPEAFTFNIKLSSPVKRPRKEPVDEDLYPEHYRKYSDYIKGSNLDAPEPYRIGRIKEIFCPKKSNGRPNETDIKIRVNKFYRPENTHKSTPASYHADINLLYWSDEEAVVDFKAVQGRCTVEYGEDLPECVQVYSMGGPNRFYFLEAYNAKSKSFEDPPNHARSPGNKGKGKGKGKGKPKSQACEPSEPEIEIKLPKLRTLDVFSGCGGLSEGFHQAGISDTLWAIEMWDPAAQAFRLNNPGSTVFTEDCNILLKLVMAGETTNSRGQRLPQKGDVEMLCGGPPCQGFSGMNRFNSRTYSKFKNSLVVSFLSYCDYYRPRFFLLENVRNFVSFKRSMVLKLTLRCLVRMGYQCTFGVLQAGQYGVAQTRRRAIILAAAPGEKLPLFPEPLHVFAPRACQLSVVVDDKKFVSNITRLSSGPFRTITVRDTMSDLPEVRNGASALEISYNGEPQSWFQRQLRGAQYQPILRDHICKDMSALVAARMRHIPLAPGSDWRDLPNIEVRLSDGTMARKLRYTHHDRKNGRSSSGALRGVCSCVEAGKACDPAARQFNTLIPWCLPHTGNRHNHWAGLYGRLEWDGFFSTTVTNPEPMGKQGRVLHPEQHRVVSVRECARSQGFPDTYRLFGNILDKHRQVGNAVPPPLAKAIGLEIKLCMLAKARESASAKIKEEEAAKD
Chain of Protein-arginine deiminase type-4 (Q9UM07 whole entry): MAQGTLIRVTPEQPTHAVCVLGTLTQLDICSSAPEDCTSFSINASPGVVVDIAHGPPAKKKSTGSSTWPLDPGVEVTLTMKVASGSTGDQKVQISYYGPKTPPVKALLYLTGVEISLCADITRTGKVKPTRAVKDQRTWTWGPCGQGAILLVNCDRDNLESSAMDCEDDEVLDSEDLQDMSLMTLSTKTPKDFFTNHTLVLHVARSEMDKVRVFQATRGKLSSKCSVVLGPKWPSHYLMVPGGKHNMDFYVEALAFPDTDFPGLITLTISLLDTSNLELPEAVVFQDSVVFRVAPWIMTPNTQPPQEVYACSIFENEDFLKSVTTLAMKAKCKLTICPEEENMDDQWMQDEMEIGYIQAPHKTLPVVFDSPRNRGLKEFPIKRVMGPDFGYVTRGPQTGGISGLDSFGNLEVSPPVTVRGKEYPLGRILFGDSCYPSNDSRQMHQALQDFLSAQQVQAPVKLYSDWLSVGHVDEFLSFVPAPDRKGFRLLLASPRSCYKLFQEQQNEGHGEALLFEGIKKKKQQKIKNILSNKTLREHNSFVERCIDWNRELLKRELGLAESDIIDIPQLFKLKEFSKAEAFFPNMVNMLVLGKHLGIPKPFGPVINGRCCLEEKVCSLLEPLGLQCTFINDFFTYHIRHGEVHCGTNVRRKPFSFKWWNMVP

SMILES: CC(=O)c1cc([N+](=O)[O-])c(Sc2ccc(Cl)cc2)s1
- IC50 [1]: 92 µM (inactive)

SMILES: CCOC(=O)C1=C(C)N=c2sc(=Cc3ccc(OCC(=O)O)cc3)c(=O)n2C1c1ccc(Cl)cc1 (stereo not given)
- IC50 [2]: 2.41 µM (active)
- IC50 [3]: 4.23 µM (active)
- IC50 [4]: 3.2 µM (active)
- IC50 [5]: 3.82 µM (active)
- IC50 [6]: 2.08 µM (active)
- IC50 [7]: 0.52 µM (active)
- IC50 [8]: 0.419 µM (active)
- IC50 [9]: 2.74 µM (active)
- IC50 [10]: 41.4 µM (active)
- IC50 [11]: 8.42 µM (active)
- IC50 [12]: > 66.6 µM (inactive)
- IC50 [13]: 8.82 µM (active)
- IC50 [14]: 12.5 µM (active)
- IC50 [15]: 12 µM (active)
